# Where two headings read alike, the source gives them in different places.
# Key:
# MRSA = assay: Test A antibacterial assay, broth microdilution MIC; format: cell-based; conditions: Staphylococcus aureus, read-out: MIC MRSA
# Protocol: (§1) Antibacterial activity can be determined as per Clinical and Laboratory Standards Institute (CLSI) guidelines using a broth microdilution assay in which log-phase bacteria are grown at 37° C. in appropriate medium containing two-fold serial dilutions of a compound to yield final concentrations ranging from 256 to 0.06 μg/mL. For determination of minimal inhibitory concentration (MIC) values, bacterial growth is monitored after 24 to 48 hours by measuring optical density at 600 nm.
# MSSA = assay: as above; format: cell-based; conditions: Staphylococcus aureus, read-out: MIC MSSA
# Protocol: as §1
# [1] = MIC determined in the presence of 50% mouse serum
# [2] = MIC values may be lower as solubility and aggregate formation may reduce observed activity
SMILES,MIC (MRSA),MIC (MSSA),MIC (MSSA; [1]),MIC (MRSA; [2]),MIC (MSSA; [2])
O=CNC(=O)c1c(F)ccc(OCc2nc3cc(Cl)ccc3s2)c1F [Example 1],0.125 µg/mL,0.25 µg/mL,–,–,–
"CN(C)/C=N/C(=O)c1c(F)ccc(OCc2nc3cc(Cl)ccc3s2)c1F [Example 1b, 3-((5-Chlorobenzo[d]thiazol-2-yl)methoxy)-N-((dimethylamino)methylene)-2,6-difluorobenzamide]",0.125 µg/mL,0.125 µg/mL,–,–,–
CC(=O)NC(=O)c1c(F)ccc(OCc2nc3cc(Cl)ccc3s2)c1F [Example 2],4 µg/mL,2 µg/mL,–,–,–
"C/C(=N\C(=O)c1c(F)ccc(OCc2nc3cc(Cl)ccc3s2)c1F)N(C)C [Example 2a, 3-((5-Chlorobenzo[d]thiazol-2-yl)methoxy)-N-(1-(dimethylamino)ethylidene)-2,6-difluorobenzamide]",4 µg/mL,2 µg/mL,–,–,–
O=CNC(=O)c1c(F)ccc(OCc2nc3cc(Cl)cnc3s2)c1F [Example 3],0.5 µg/mL,0.5 µg/mL,–,–,–
"CN(C)/C=N/C(=O)c1c(F)ccc(OCc2nc3cc(Cl)cnc3s2)c1F [Example 3b, 3-((6-Chlorothiazolo[5,4-b]pyridin-2-yl)methoxy)-N-((dimethylamino)methylene)-2,6-difluorobenzamide]",1 µg/mL,0.5 µg/mL,–,–,–
CC(=O)NC(=O)c1c(F)ccc(OCc2nc3cc(Cl)cnc3s2)c1F [Example 4],–,–,2 µg/mL,–,–
"C/C(=N\C(=O)c1c(F)ccc(OCc2nc3cc(Cl)cnc3s2)c1F)N(C)C [Example 4a, 3-((6-Chlorothiazolo[5,4-b]pyridin-2-yl)methoxy)-N-(1-(dimethylamino)ethylidene)-2,6-difluorobenzamide]",4 µg/mL,4 µg/mL,–,–,–
CCCC(=O)NC(=O)c1c(F)ccc(OCc2nc3cc(Cl)ccc3s2)c1F [Example 6],–,–,–,1 µg/mL,0.5 µg/mL
O=C(NC(=O)C1CCCCC1)c1c(F)ccc(OCc2nc3cc(Cl)ccc3s2)c1F [Example 7],–,–,–,–,0.5 µg/mL
CN1CCC(C(=O)NC(=O)c2c(F)ccc(OCc3nc4cc(Cl)ccc4s3)c2F)CC1 [Example 8],0.5 µg/mL,0.5 µg/mL,–,–,–
O=C(NC(=O)c1c(F)ccc(OCc2nc3cc(Cl)ccc3s2)c1F)c1ccccc1 [Example 9],–,–,–,–,0.5 µg/mL
O=C(CCl)NC(=O)c1c(F)ccc(OCc2nc3cc(Cl)ccc3s2)c1F [Example 10],0.25 µg/mL,0.125 µg/mL,–,–,–
CC1CCN(CC(=O)NC(=O)c2c(F)ccc(OCc3nc4cc(Cl)ccc4s3)c2F)CC1 [Example 11],1 µg/mL,0.5 µg/mL,–,–,–
O=C(Cn1ccnc1)NC(=O)c1c(F)ccc(OCc2nc3cc(Cl)ccc3s2)c1F [Example 12],0.25 µg/mL,0.125 µg/mL,–,–,–
O=C(NC(=O)c1c(F)ccc(OCc2nc3cc(Cl)ccc3s2)c1F)c1ccc(CCl)cc1 [Example 13],–,–,4 µg/mL,–,–
O=C(c1c(F)ccc(OCc2nc3cc(Cl)ccc3s2)c1F)N(C(=O)C(F)(F)F)C(=O)C(F)(F)F [Example 14],–,–,2 µg/mL,–,–
CS(=O)(=O)NC(=O)c1c(F)ccc(OCc2nc3cc(Cl)ccc3s2)c1F [Example 15],8 µg/mL,8 µg/mL,–,–,–
O=C(NCO)c1c(F)ccc(OCc2nc3cc(Cl)ccc3s2)c1F [Example 16],2 µg/mL,2 µg/mL,–,–,–
O=C(NC(=O)c1c(F)ccc(OCc2nc3cc(Cl)ccc3s2)c1F)c1c(Cl)ccnc1Cl [Example 18],> 64 µg/mL,> 64 µg/mL,–,–,–
O=C(NC(=O)c1c(F)ccc(OCc2nc3cc(Cl)ccc3s2)c1F)c1ccnc(Cl)c1Cl [Example 19],4 µg/mL,> 64 µg/mL,–,–,–
CC(C)(C)C(=O)NC(=O)c1c(F)ccc(OCc2nc3cc(Cl)ccc3s2)c1F [Example 20],4 µg/mL,> 64 µg/mL,–,–,–
O=C(Cc1ccccc1)NC(=O)c1c(F)ccc(OCc2nc3cc(Cl)ccc3s2)c1F [Example 21],2 µg/mL,> 64 µg/mL,–,–,–
O=C(NC(=O)C1CCC1)c1c(F)ccc(OCc2nc3cc(Cl)ccc3s2)c1F [Example 22],2 µg/mL,0.5 µg/mL,–,–,–
CC(C(=O)NC(=O)c1c(F)ccc(OCc2nc3cc(Cl)ccc3s2)c1F)c1ccccc1 (stereo not shown) [Example 23],2 µg/mL,> 64 µg/mL,–,–,–
O=C(NC(=O)c1c(F)ccc(OCc2nc3cc(Cl)ccc3s2)c1F)c1c(Cl)cccc1Cl [Example 24],> 64 µg/mL,> 64 µg/mL,–,–,–

SMILES,MIC (MRSA),MIC (MSSA),MIC (MSSA; [1]),MIC (MRSA; [2]),MIC (MSSA; [2])
CCC(C)C(=O)NC(=O)c1c(F)ccc(OCc2nc3cc(Cl)ccc3s2)c1F (stereo not shown) [Example 25],2 µg/mL,> 64 µg/mL,–,–,–
COC(=O)NC(=O)c1c(F)ccc(OCc2nc3cc(Cl)ccc3s2)c1F [Example 26],8 µg/mL,> 64 µg/mL,–,–,–
CN(C)C(=O)NC(=O)c1c(F)ccc(OCc2nc3cc(Cl)ccc3s2)c1F [Example 27],> 64 µg/mL,> 64 µg/mL,–,–,–
CCOC(=O)NC(=O)c1c(F)ccc(OCc2nc3cc(Cl)ccc3s2)c1F [Example 28],8 µg/mL,> 64 µg/mL,–,–,–
COc1cccc(COC(=O)NC(=O)c2c(F)ccc(OCc3nc4cc(Cl)ccc4s3)c2F)c1 [Example 29],32 µg/mL,8 µg/mL,–,–,–
CC(C)OC(=O)NC(=O)c1c(F)ccc(OCc2nc3cc(Cl)ccc3s2)c1F [Example 30],2 µg/mL,> 64 µg/mL,–,–,–
O=C(NC(=O)c1c(F)ccc(OCc2nc3cc(Cl)ccc3s2)c1F)OCCF [Example 31],4 µg/mL,> 64 µg/mL,–,–,–
"O=C(NC(=O)c1c(F)ccc(OCc2nc3cc(Cl)ccc3s2)c1F)Oc1ccccc1 [Example 32, Phenyl(3-((5-chlorobenzo[d]thiazol-2-yl)methoxy)-2,6-difluorobenzoyl)carbamate]",4 µg/mL,4 µg/mL,–,–,–
CN1CCN(C(=O)NC(=O)c2c(F)ccc(OCc3nc4cc(Cl)ccc4s3)c2F)CC1 [Example 33],> 64 µg/mL,> 64 µg/mL,–,–,–
"CN1CCC(OC(=O)NC(=O)c2c(F)ccc(OCc3nc4cc(Cl)ccc4s3)c2F)CC1 [Example 34, 1-methylpiperidin-4-yl (3-((5-chlorobenzo[d]thiazol-2-yl)methoxy)-2,6-difluorobenzoyl)carbamate]",4 µg/mL,32 µg/mL,–,–,–
CN1CCN(C(=O)NC(=O)c2c(F)ccc(OCc3nc4cc(Cl)cnc4s3)c2F)CC1 [Example 35],2 µg/mL,0.25 µg/mL,–,–,–
CC(=O)NC(=O)c1c(F)ccc(OCc2cccc(-c3ccc(C(C)(C)C)cc3)c2)c1F [Example 36],> 64 µg/mL,> 64 µg/mL,–,–,–
CC(C)(C)c1cc(C(=O)NC(=O)c2c(F)ccc(OCc3nc4cc(Cl)ccc4s3)c2F)cc(C(C)(C)C)c1 [Example 37],8 µg/mL,> 64 µg/mL,–,–,–
CC(=O)NC(=O)c1cccc(OCc2nc3cc(Cl)ccc3s2)c1 [Example 38],> 64 µg/mL,> 64 µg/mL,–,–,–
CC(=O)NC(=O)c1c(N2CCN(C)CC2)ccc(OCc2nc3cc(Cl)ccc3s2)c1F [Example 39],> 64 µg/mL,> 64 µg/mL,–,–,–
CCC(C)C(=O)NC(=O)c1c(F)ccc(OCc2nc3cc(Cl)cnc3s2)c1F (stereo not shown) [Example 40],2 µg/mL,> 64 µg/mL,–,–,–
CN1CCC(C(=O)NC(=O)c2c(Cl)ccc(OCc3nc4cc(Cl)cnc4s3)c2F)CC1 [Example 41],8 µg/mL,4 µg/mL,–,–,–
CN1CCC(C(=O)NC(=O)c2c(F)ccc(OC(CO)c3nc(-c4ccc(C(F)(F)F)cc4)c(Br)o3)c2F)CC1 (stereo not shown) [Example 42],16 µg/mL,1 µg/mL,–,–,–
CCC(=O)N(C(=O)CC)C(=O)c1c(F)ccc(OCc2nc3cc(Cl)ccc3s2)c1F [Example 43],64 µg/mL,64 µg/mL,–,–,–
CN1CCC(C(=O)NC(=O)c2c(F)ccc(OCc3nc(-c4ccc(OC(F)(F)F)cc4)c(Br)o3)c2F)CC1 [Example 46],4 µg/mL,1 µg/mL,–,–,–
CN1CCC(C(=O)NC(=O)c2c(F)ccc(OCc3nc(-c4ccc(OC(F)(F)F)cc4)ns3)c2F)CC1 [Example 47],1 µg/mL,0.0625 µg/mL,–,–,–
CC(C)c1csc(COc2ccc(F)c(C(=O)NC(=O)C3CCN(C)CC3)c2F)n1 [Example 48],8 µg/mL,8 µg/mL,–,–,–
CN1CCC(C(=O)NC(=O)c2c(F)ccc(OCc3nc(-c4ccc(C(F)(F)F)cn4)c(Br)o3)c2F)CC1 [Example 49],16 µg/mL,2 µg/mL,–,–,–
CN1CCC(C(=O)NC(=O)c2c(F)ccc(OCc3nc(-c4ccc(C(F)(F)F)cn4)ns3)c2F)CC1 [Example 50],4 µg/mL,1 µg/mL,–,–,–
CNC(=O)NC(=O)c1c(F)ccc(OCc2nc3cc(Cl)ccc3s2)c1F [Example 51],> 64 µg/mL,> 64 µg/mL,–,–,–

# Reference: patent US10071082B2, “Antimicrobial agents” (Rutgers, The State University of New Jersey, priority 2013, dated 2018)
